Test results: US20140357512A1, “HISTONE DEACETYLASE (HDAC) BIOMARKERS IN MULTIPLE MYELOMA” (priority 2013, published 2014)

System: human myeloma cell line MM.1S
Assay: SILAC acetylated-lysine peptide profiling, HDAC inhibitor vs DMSO (light/heavy ratio)
Format: cell-based
Source text: An embodiment of the invention comprises utilizing the SILAC method in order to quantitate changes in protein expression between two or more populations of cells. The SILAC method is a technique based on mass spectrometry that detects differences in protein abundance among samples using non-radioactive isotopic labeling. The SILAC method is known in the art, and described in detail in Ong et al., “Stable Isotope Labeling by Amino Acids in Cell Culture, SILAC, as a Simple and Accurate Approach to Expression Proteomics”, Molecular & Cellular Proteomics, vol. 1, pp. 376-386 (2002), which is incorporated herein by reference in its entirety.
Briefly, the SILAC method involves growing two populations of cells in cell culture. The first population of cells is grown in growth media containing normal amino acids (“normal media”). The second population of cells is grown in media lacking a standard essential amino acid (such as lysine), but is then supplemented with a non-radioactive, isotopically labeled form of that essential amino acid (such as lysine labeled with ^13C atoms, rather than normal ^12C atoms), which is called “heavy media”. When the two populations of cells are each growing in the medium, they incorporate the amino acids into all of their proteins. The growth of cells maintained in the heavy media is no different from that in normal media. All peptides containing the heavy amino acids are heavier than their normal counterparts. The cells from each of the two populations of cells are lysed. The lysates from each of the two cell populations are then combined. The combined cell lysates are then analyzed by mass spectrometry. Pairs of chemically identical peptides of different stable isotope composition can be differentiated in a mass spectrometer due to their difference in mass. The ratio of peak intensities in the mass spectrum for such peptide pairs reflects the abundance ratio for the two proteins.
This example describes SILAC studies that were performed to compare the effects of three different HDAC inhibitors (Compound A, Compound B, and tubastatin A) to a control on a human multiple myeloma cell line. The HDAC inhibitors were also compared amongst themselves to determine differences in their effects.
A human myeloma cell line MM.1S was grown using either ^12C (light) or ^13C (heavy) lysine containing culture medium. The “heavy” cells were treated with DMSO as the control, and the “light” cells were treated with a single HDAC inhibitor at 37° C. for 6 hours. The heavy and light cells were lysed, and the lysates were mixed in 1:1 ratio and digested with the protease trypsin. The acetylated lysine containing peptides (due to the action of the HDAC inhibitor) in the digested peptide pool were captured by a non-specific anti-acetylated lysine antibody cocktail (the antibodies identify both light and heavy acetylated peptides), and subjected to mass spectrometry analysis in order to identify thousands of individual peptides.
Thousands of peptides were identified in pairs (^12C and ^13C) due to their known mass differences. The amino acid sequence and quantitative ratio (Light/Heavy) of a given peptide in two differentially treated cell lysates were then determined and annotated with their possible protein (gene) sources.
As stated above, three HDAC inhibitors (Compound A, Compound B, and Tubastatin A) were used. Thus, the SILAC method was performed three times, with a different HDAC inhibitor compared to a control each time. Accordingly, there are three pairs of quantitative data in the table below, i.e., Compound A:DMSO, Compound B:DMSO, and Tubastatin A:DMSO. A cut-off of 1.30 fold of change (increase or decrease) was then used to determine “changed” or “+” in the table, and any peptides with a fold of change less than 1.3 fold were determined to be “unchanged” or “0” in the table. Those peptides that were not identified were marked as “NA” in the table. […]

## O=C(CCCCCCNC(=O)c1cnc(N(c2ccccc2)c2ccccc2)nc1)NO [Compound A, 2-(diphenylamino)-N-(7-(hydroxyamino)-7-oxoheptyl)pyrimidine-5-carboxamide]
Glyceraldehyde-3-phosphate dehydrogenase [263], gene GAPDH, inhibitor:DMSO
  light to heavy ratio (L/H ratio) of acetylated peptide VVK(ac)QASEGPLK (SEQ ID NO: 597): 0.45 log 2
Glycyl-tRNA synthetase [224], gene GARS, inhibitor:DMSO
  light to heavy ratio (L/H ratio) of acetylated peptide AHLQK(ac)LMSDK (SEQ ID NO: 549): 0.39 log 2
Guanine nucleotide-binding protein G(olf) subunit alpha [55], gene GNAL, drug:DMSO
  light to heavy ratio (L/H ratio), log 2 scale, acetylated peptide LLLLGAGESGK(ac)STIVK (SEQ ID NO: 769): 0.97
H2AFV [5:8], log 2 scale, drug vs DMSO
  L/H ratio of acetylated peptide AGGK(ac)AGK(ac)DSGK (SEQ ID NO: 15): 1.00
H(+)/CI(−) exchange transporter 5 [587], gene CLCN5, inhibitor:DMSO
  light to heavy ratio (L/H ratio) of acetylated peptide TLAMDVMK(ac)PR (SEQ ID NO: 501): −0.76 log 2
H/ACA ribonucleoprotein complex subunit 3 [40], gene NOP10, inhibitor:DMSO
  light to heavy ratio (L/H ratio) of acetylated peptide FSPDDK(ac)YSR (SEQ ID NO: 504): −0.68 log 2
HADHA [406], log 2 scale, drug vs DMSO
  L/H ratio of acetylated peptide GQQQVFK(ac)GLNDK (SEQ ID NO: 41): 0.00
HGMK(ac)VVLISR (SEQ ID NO: 494), Estradiol 17-beta-dehydrogenase 12 [76], HSD17B12
  L/H ratio of acetylated peptide: −1.00 log 2
HIST1H2BO [6:12], log 2 scale, drug vs DMSO
  L/H ratio of acetylated peptide PDPAK(ac)SAPAPK(ac)K (SEQ ID NO: 16): 1.00
HLA-B associated transcript 1 [188], gene SNORD84, DDX39B, inhibitor:DMSO
  light to heavy ratio (L/H ratio) of acetylated peptide SLNLK(ac)HIK (SEQ ID NO: 607): 0.46 log 2
HMGB2 [30], log 2 scale, drug vs DMSO
  L/H ratio of acetylated peptide K(ac)[…] (SEQ ID NO: 42): 0.00
HNRNPA3 [29], log 2 scale, drug vs DMSO
  L/H ratio of acetylated peptide RGEEGHDPK(ac)EPEQLR (SEQ ID NO: 43): 0.00
HNRNPM [83], log 2 scale, drug vs DMSO
  L/H ratio of acetylated peptide […](ac)WQSLK (SEQ ID NO: 44): 0.00
HNRNPM [134], log 2 scale, drug vs DMSO
  L/H ratio of acetylated peptide AAEVLNK(ac)HSLSGRPLK (SEQ ID NO: 3): 0.00
HNRNPR [341], log 2 scale, drug vs DMSO
  L/H ratio of acetylated peptide VK(ac)VLFVR (SEQ ID NO: 45): 0.00
HNRNPU [246], log 2 scale, drug vs DMSO
  L/H ratio of acetylated peptide […](ac)YSR (SEQ ID NO: 46): 0.00
HNRNPU [497], log 2 scale, drug vs DMSO
  L/H ratio of acetylated peptide TTWVTK(ac)HAAENPGK (SEQ ID NO: 47): 0.00
HSP90B1 [97], log 2 scale, drug vs DMSO
  L/H ratio of acetylated peptide NK(ac)EIFLR (SEQ ID NO: 52): 0.00
HSP90B1 [114], log 2 scale, drug vs DMSO
  L/H ratio of acetylated peptide […](ac)IR (SEQ ID NO: 49): 0.00
HSP90B1 [161], log 2 scale, drug vs DMSO
  L/H ratio of acetylated peptide EELVK(ac)NLGTIAK (SEQ ID NO: 48): 0.00
HSP90B1 [455], log 2 scale, drug vs DMSO
  L/H ratio of acetylated peptide ETLQQHK(ac)LLK (SEQ ID NO: 50): 0.00
HSP90B1 [479], log 2 scale, drug vs DMSO
  L/H ratio of acetylated peptide IADDK(ac)YNDTFWK (SEQ ID NO: 51): 0.00
HSPA5 [96], log 2 scale, drug vs DMSO
  L/H ratio of acetylated peptide […](ac)R (SEQ ID NO: 54): 0.00
HSPA5 [213], log 2 scale, drug vs DMSO
  L/H ratio of acetylated peptide […](ac)R (SEQ ID NO: 53): 0.00
HSPA8 [71], log 2 scale, drug vs DMSO
  L/H ratio of acetylated peptide […](ac)R (SEQ ID NO: 55): 0.00
Heat shock 70 kDa protein 1A/1B [71], HSPA1B, HSPA1A, drug:DMSO
  light to heavy ratio (L/H ratio) of acetylated peptide […](ac)R (SEQ ID NO: 267): 0.44 log 2
Heterogeneous nuclear ribonucleoprotein F [98], gene HNRNPF, drug:DMSO
  light to heavy ratio (L/H ratio), log 2 scale, acetylated peptide TEMDWVLK(ac)[…] (SEQ ID NO: 797): 1.00
Heterogeneous nuclear ribonucleoprotein U-like protein 2 [553], gene HNRNPUL2, inhibitor:DMSO
  light to heavy ratio (L/H ratio) of acetylated peptide LLLFK(ac)TFSR (SEQ ID NO: 514): −0.57 log 2
High mobility group protein B2 [157], gene HMGB2, inhibitor:DMSO
  light to heavy ratio (L/H ratio) of acetylated peptide YEK(ac)DIAAYR (SEQ ID NO: 595): 0.45 log 2
Histone H2A.V [8:12], gene H2AFV, drug:DMSO
  light to heavy ratio (L/H ratio), log 2 scale, acetylated peptide AGK(ac)DSGK(ac)AK (SEQ ID NO: 786): 1.00
Histone H2B type 1-B [16:17], gene HIST1H2BB, drug:DMSO
  light to heavy ratio (L/H ratio), log 2 scale, acetylated peptide GSK(ac)K(ac)AITK (SEQ ID NO: 790): 1.00
Histone H2B type 1-D [6:12], gene HIST1H2BD, drug:DMSO
  light to heavy ratio (L/H ratio), log 2 scale, acetylated peptide PEPTK(ac)SAPAPK(ac)K (SEQ ID NO: 791): 1.00
Histone H2B type 1-M [16:17], gene HIST1H2BM, drug:DMSO
  light to heavy ratio (L/H ratio), log 2 scale, acetylated peptide GSK(ac)K(ac)AINK (SEQ ID NO: 792): 1.00
Histone H2B type 1-M [17:21], gene HIST1H2BM, drug:DMSO
  light to heavy ratio (L/H ratio), log 2 scale, acetylated peptide K(ac)AINK(ac)AQK (SEQ ID NO: 793): 1.00
Histone H2B type 2-E [6:12], HIST2H2BE, drug:DMSO
  light to heavy ratio (L/H ratio) of acetylated peptide PEPAK(ac)SAPAPK(ac)K (SEQ ID NO: 309): 1.00 log 2
